Drawing on US10487068B2, “Pyridazine derivatives as RORc modulators” (Genentech, Inc., priority 2015, dated 2019), this text covers IC50 for 42 compounds.

As a reminder, the pIC50 is the negative decadic logarithm of the IC50, by convention in mol/L. Low readings indicate a large IC50, high ones a small IC50.

The test deals with T1, RORc ligand binding domain (Homo sapiens, UniProt P51449).
T1 sequence (P51449 269-508 limits assumed): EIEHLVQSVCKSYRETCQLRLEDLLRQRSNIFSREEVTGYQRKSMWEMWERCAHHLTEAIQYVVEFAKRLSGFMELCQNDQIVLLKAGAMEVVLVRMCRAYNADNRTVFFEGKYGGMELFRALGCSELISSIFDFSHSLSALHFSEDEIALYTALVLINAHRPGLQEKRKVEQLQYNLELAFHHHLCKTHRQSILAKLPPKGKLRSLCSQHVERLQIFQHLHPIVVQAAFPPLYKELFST
Kind of test: In Vitro RORc Ligand Binding Assay. The following applies: RORc IC50, radioligand 25-[3H]hydroxycholesterol 6 nM; 0.6 ug/mL RORc receptor; 3 h at 25° C.

pIC50: −log10 of the molar value.

In turn, `CC(C)(O)c1nnc(-c2ncc(F)c([C@@]34CC[C@@H](c5cc(-c6c(F)cccc6F)nnc53)C4(C)C)n2)[nH]1` [Example 234] gave a pIC50 of 7.44.

Consider `CC1(C)[C@H]2CC[C@]1(c1cc(-c3cnc(CO)o3)ccn1)c1nnc(-c3c(F)cccc3F)cc12` [Example 235], for which the pIC50 was 8.03. As for `CC1(C)[C@H]2CC[C@]1(c1cncc(-n3cnc(CO)c3)n1)c1nnc(-c3c(F)cccc3F)cc12` [Example 236], the figure is 8.24; as for `CC1(C)[C@H]2CC[C@]1(c1cccc(C(O)CO)n1)c1nnc(-c3c(F)cccc3F)cc12` (stereo partly drawn) [Example 237, 1-(6-((5R,8S)-3-(2,6-difluorophenyl)-9,9-dimethyl-5,6,7,8-tetrahydro-5,8-methanocinnolin-8-yl)pyridin-2-yl)ethane-1,2-diol], 8.59.

Compound `CC1(C)[C@H]2CC[C@]1(c1ccnc(-n3cc(CO)cn3)n1)c1nnc(-c3c(F)cccc3F)cc12` [Example 238] showed a pIC50 of 7.40. For `CC(C)(O)c1cn(-c2nccc([C@@]34CC[C@@H](c5cc(-c6c(F)cccc6F)nnc53)C4(C)C)n2)cn1` [Example 239] the value was 7.86; for `CC(C)(O)c1coc(-c2cccc([C@@]34CC[C@@H](c5cc(-c6c(F)cccc6F)nnc53)C4(C)C)n2)n1` [Example 240, 2-(2-(6-((5R,8S)-3-(2,6-difluorophenyl)-9,9-dimethyl-5,6,7,8-tetrahydro-5,8-methanocinnolin-8-yl)pyridin-2-yl)oxazol-4-yl)propan-2-ol], 8.35. As for `Cc1cc(-c2ccnc([C@@]34CC[C@@H](c5cc(-c6c(F)cccc6F)nnc53)C4(C)C)n2)on1` [Example 241, 5-(2-((5R,8R)-3-(2,6-difluorophenyl)-9,9-dimethyl-5,6,7,8-tetrahydro-5,8-methanocinnolin-8-yl)pyrimidin-4-yl)-3-methylisoxazole], the figure is 7.96; as for `CC1(C)[C@H]2CC[C@]1(c1c(Br)cnc(C#N)c1F)c1nnc(-c3c(F)cccc3F)cc12` [Example 242, 5-bromo-4-((5R,8S)-3-(2,6-difluorophenyl)-9,9-dimethyl-5,6,7,8-tetrahydro-5,8-methanocinnolin-8-yl)-3-fluoropicolinonitrile], 8.30; as for `CC1(C)[C@H]2CC[C@]1(c1cncc(-n3cc(CO)cn3)n1)c1nnc(-c3c(F)cccc3F)cc12` [Example 243, (1-(6-((5R,8S)-3-(2,6-difluorophenyl)-9,9-dimethyl-5,6,7,8-tetrahydro-5,8-methanocinnolin-8-yl)pyrazin-2-yl)-1H-pyrazol-4-yl)methanol], 7.93. For `CC1(C)[C@H]2CC[C@]1(c1cc(-c3c[nH]c(=O)[nH]3)ccn1)c1nnc(-c3c(F)cccc3F)cc12` [Example 244] the value was 6.92; for `CC1(C)[C@@H]2CC[C@@]1(c1nc(C#N)ncc1Cl)c1nnc(-c3c(F)cccc3F)cc12` [Example 245], 7.58; for `CC1(C)[C@H]2CC[C@]1(c1cncc(-c3ccn[nH]3)n1)c1nnc(-c3c(F)cccc3F)cc12` [Example 246], 8.08. Compound `CC(C)(O)c1cc(-c2cncc([C@@]34CC[C@@H](c5cc(-c6c(F)cccc6F)nnc53)C4(C)C)n2)[nH]n1` [Example 247, 2-(5-(6-((5R,8S)-3-(2,6-difluorophenyl)-9,9-dimethyl-5,6,7,8-tetrahydro-5,8-methanocinnolin-8-yl)pyrazin-2-yl)-1H-pyrazol-3-yl)propan-2-ol] showed a pIC50 of 7.70. For `CC(C)(O)c1noc(-c2cncc([C@@]34CC[C@@H](c5cc(-c6c(F)cccc6F)nnc53)C4(C)C)n2)n1` [Example 248, 2-(5-(6-((5R,8S)-3-(2,6-difluorophenyl)-9,9-dimethyl-5,6,7,8-tetrahydro-5,8-methanocinnolin-8-yl)pyrazin-2-yl)-1,2,4-oxadiazol-3-yl)propan-2-ol] the value was 7.57; for `CC(C)(O)c1nnc(-c2ncc(Cl)c([C@@]34CC[C@@H](c5cc(-c6c(F)cccc6F)nnc53)C4(C)C)n2)[nH]1` [Example 249], 7.30. `CC1(C)[C@H]2CC[C@]1(c1nc(C(N)=O)ncc1F)c1nnc(-c3c(F)cccc3F)cc12` [Example 250] gave a pIC50 of 7.64. As for `CC1(C)[C@H]2CC[C@]1(c1ccnc(-c3ccn[nH]3)n1)c1nnc(-c3c(F)cccc3F)cc12` [Example 251], the figure is 8.01. For `CC1(C)[C@H]2CC[C@]1(c1ccnc(-n3ccc(CO)n3)n1)c1nnc(-c3c(F)cccc3F)cc12` [Example 252] the value was 7.71; for `CC1(C)[C@H]2CC[C@]1(c1ccnc(-c3cn[nH]c3)n1)c1nnc(-c3c(F)cccc3F)cc12` [Example 253], 8.24.

As to `CC1(C)[C@H]2CC[C@]1(c1ccnc(-c3cccnc3)n1)c1nnc(-c3c(F)cccc3F)cc12` [Example 254], the pIC50 was 8.36. For `Cc1ncn(-c2cncc([C@@]34CC[C@@H](c5cc(-c6c(F)cccc6F)nnc53)C4(C)C)n2)n1` [Example 255] the value was 8.07. As for `CC(C)(O)c1nc(-c2cncc([C@@]34CC[C@@H](c5cc(-c6c(F)cccc6F)nnc53)C4(C)C)n2)no1` [Example 256, 2-(3-(6-((5R,8S)-3-(2,6-difluorophenyl)-9,9-dimethyl-5,6,7,8-tetrahydro-5,8-methanocinnolin-8-yl)pyrazin-2-yl)-1,2,4-oxadiazol-5-yl)propan-2-ol], the figure is 8.00; as for `C[C@H](O)c1nnc(-c2ncc(F)c([C@@]34CC[C@@H](c5cc(-c6c(F)cccc6F)nnc53)C4(C)C)n2)[nH]1` [Example 257], 7.65; as for `C[C@@H](O)c1nnc(-c2ncc(F)c([C@@]34CC[C@@H](c5cc(-c6c(F)cccc6F)nnc53)C4(C)C)n2)[nH]1` [Example 258], 7.67. As for `CC(C)(O)c1cc(-c2cncc([C@@]34CC[C@@H](c5cc(-c6c(F)cccc6F)nnc53)C4(C)C)n2)no1` [Example 259, 2-(3-(6-((5R,8S)-3-(2,6-difluorophenyl)-9,9-dimethyl-5,6,7,8-tetrahydro-5,8-methanocinnolin-8-yl)pyrazin-2-yl)isoxazol-5-yl)propan-2-ol], the figure is 8.06; as for `CC(C)(O)c1nnc(-c2cncc([C@@]34CC[C@@H](c5cc(-c6c(F)cccc6F)nnc53)C4(C)C)n2)o1` [Example 260, 2-(5-(6-((5R,8S)-3-(2,6-difluorophenyl)-9,9-dimethyl-5,6,7,8-tetrahydro-5,8-methanocinnolin-8-yl)pyrazin-2-yl)-1,3,4-oxadiazol-2-yl)propan-2-ol], 7.91; as for `CC1(C)[C@H]2CC[C@]1(c1ccnc(-n3cnc(C(N)=O)c3)n1)c1nnc(-c3c(F)cccc3F)cc12` [Example 261], 7.93. Regarding `CC(C)(O)c1nnc(-c2nccc([C@@]34CC[C@@H](c5cc(-c6c(F)cccc6F)nnc53)C4(C)C)n2)[nH]1` [Example 262], the negative-log IC50 (pIC50) was 7.43. As for `C[C@H](O)c1nnc(-c2nccc([C@@]34CC[C@@H](c5cc(-c6c(F)cccc6F)nnc53)C4(C)C)n2)[nH]1` [Example 263], the figure is 7.68; as for `C[C@@H](O)c1nnc(-c2nccc([C@@]34CC[C@@H](c5cc(-c6c(F)cccc6F)nnc53)C4(C)C)n2)[nH]1` [Example 264], 7.49; as for `Cc1cc(-c2ccnc([C@@]34CC[C@@H](c5cc(-c6c(F)cccc6F)nnc53)C4(C)C)n2)no1` [Example 266, 3-(2-((5R,8R)-3-(2,6-difluorophenyl)-9,9-dimethyl-5,6,7,8-tetrahydro-5,8-methanocinnolin-8-yl)pyrimidin-4-yl)-5-methylisoxazole], 8.37. As for `Cc1ncn(-c2ncc(F)c([C@@]34CC[C@@H](c5cc(-c6c(F)cccc6F)nnc53)C4(C)C)n2)n1` [Example 267], the figure is 7.76; as for `CC1(C)[C@H]2CC[C@]1(c1nc(N)ncc1F)c1nnc(-c3c(F)cccc3F)cc12` [Example 268], 8.48.

With `CC(C)(O)c1cc(-c2cncc([C@@]34CC[C@@H](c5cc(-c6c(F)cccc6F)nnc53)C4(C)C)n2)on1` [Example 269, 2-(5-(6-((5R,8S)-3-(2,6-difluorophenyl)-9,9-dimethyl-5,6,7,8-tetrahydro-5,8-methanocinnolin-8-yl)pyrazin-2-yl)isoxazol-3-yl)propan-2-ol], the negative-log IC50 (pIC50) was 8.52. As for `Cc1ncn(-c2cccc([C@@]34CC[C@@H](c5cc(-c6c(F)cccc6F)nnc53)C4(C)C)n2)n1` [Example 270], the figure is 8.72; as for `CC1(C)[C@H]2CC[C@]1(c1ccnc(-n3cnc(C(F)(F)F)n3)n1)c1nnc(-c3c(F)cccc3F)cc12` [Example 271], 8.36; as for `CC(C)c1ncn(-c2nccc([C@@]34CC[C@@H](c5cc(-c6c(F)cccc6F)nnc53)C4(C)C)n2)n1` [Example 273], 8.28. For `CC1(C)[C@H]2CC[C@]1(c1ccnc(-n3cnc(C4CC4)n3)n1)c1nnc(-c3c(F)cccc3F)cc12` [Example 274] the value was 8.70; for `Cc1nc(-c2ccnc([C@@]34CC[C@@H](c5cc(-c6c(F)cccc6F)nnc53)C4(C)C)n2)co1` [Example 275, 4-(2-((5R,8R)-3-(2,6-difluorophenyl)-9,9-dimethyl-5,6,7,8-tetrahydro-5,8-methanocinnolin-8-yl)pyrimidin-4-yl)-2-methyloxazole], 7.99; for `CC(C)(O)c1ncn(-c2nccc([C@@]34CC[C@@H](c5cc(-c6c(F)cccc6F)nnc53)C4(C)C)n2)n1` [Example 276], 7.81. Turning to `CNC(=O)c1nc(-c2ncc(F)c([C@@]34CC[C@@H](c5cc(-c6c(F)cccc6F)nnc53)C4(C)C)n2)no1` [Example 277], the pIC50 is 7.91.
